Data taken from patent publication US20050063956A1, “Method and device for attracting insects” (Colorado State University Research Foundation, priority 1998, published 2005).

How the values were obtained:
[1] = test system: western corn root worm larvae; test: Glass bead Y-tube choice test, corn volatiles versus CO2 (Example 19); design: species or system Diabrotica virgifera virgifera LeConte; details: in vivo
Protocol: Bioassay Procedure. All bioassays were choice tests conducted using a vertical glass “Y” tube apparatus filled with 3-mm glass beads (Bernklau and Bjostad 1998) (FIG. 62). Volatile compounds were prepared in 35-ml polyethylene syringes (cat no. 106-0490, Sherwood Medical, St. Louis, Mo.) and a syringe pump (Sage Model 355, Fisher Scientific, Pittsburgh, Pa.) was used to provide, slow (1 ml per min) consistent delivery of the compounds into each choice arm of the bioassay apparatus. Twenty newly-hatched larvae (less than 12-hours-old) were used for each bioassay. Non-diapausing larvae were used for all experiments unless otherwise indicated below. For each choice test a minimum of 10 replicates were conducted.
Corn Headspace Versus CO2. Using the glass bead bioassay (Bernklau and Bjostad 1998) the headspace over germinating corn seeds was tested in a choice test against a series of CO2 concentrations to determine if corn volatiles (including CO2) were more attractive to the larvae than CO2 alone. A 35-ml syringe was filled with the headspace over 3-day-old germinating corn seedlings by means of a 25-cm length of slender Teflon tubing inserted into a hole drilled into the cover of the tub containing the corn seedlings.
Three different concentrations of CO2 were tested on the control side of the choice test. In the 1 st test, we used ambient room air on the control side, which contains a lower concentration of CO2 than the corn headspace (approximately 1.0 mmol/mol). In the 2nd test, we used GC-MS-SIM to match the CO2 concentration in the syringe on the control side to be equal to that measured in the syringe containing corn headspace. In the 3rd test, the syringe on the control side of the choice test contained a CO2 concentration twice that measured in the corn headspace. To prepare each of these control concentrations, a 2nd 35-ml polyethylene syringe was partially filled (approximately 5 ml) from a tank containing pure (100%) CO2 using a glass syringe. Headspace from a plastic tub containing only moist germination paper was drawn into the syringe to fill it, mixing the air and CO2 thoroughly at the same time. The gas mixtures in the polyethylene syringes were allowed to equilibrate for 15 minutes, and GC-MS-SIM was used to verify the CO2 concentrations in both syringes prior to each bioassay.
Corn Headspace Versus CO2 with Diapausing Larvae. The larvae used in our studies were from a colony of nondiapausing western corn root worm that has been maintained in our laboratory since 1986. We wished to determine if diapausing western corn root worm larvae would respond differently to corn volatiles than the colony larvae. Using the same method described above, the headspace over germinating corn seeds was tested in a choice test against a series of CO2 concentrations with western corn root worm larvae from a diapausing strain.
Corn Headspace-Coated Glass Beads versus CO2. In the previous experiments, corn volatiles were introduced into the bottom of the Y-tube and carried through the glass beads by the airstream from the syringe pump. We also tested the possibility that some volatile compounds may have been removed from the airstream by coating out on the glass beads on the bottom of the Y-tube where they would not be available for the larvae to detect at the choice point near the middle of the Y-tube. […]

[2] = test system: corn root worm neonate larvae; test: Repellence test, larvae staying on paper (FIG. 78); assay type: in vivo; details: in the presence of a feeding stimulus
[3] = test system: neonate Western Corn root worm larvae; test: Larval bioassay in soil tubs with granules; design: species or system Diabrotica species; details: in vivo
Protocol: The bioassay comprises a laboratory test conducted in tubs (30×15×8 cm) filled with 3000 grams of soil. A single corn seed is placed 2 cm from one end of the tub. After the corn plant is 4 days old, 30 neonate Western Corn root worm larvae are introduced into the soil in the end of the tub opposite the corn seedings. Larvae are given 24 hours to attempt to locate and attack the corn plant. Larvae are recovered from the corn plant. For granule tests, a measured amount (0.25 gram of prepared granule is mixed into 1.0 kg. of soil (20% moisture). This soil is used to fill the center ⅓ of the bioassay tub.

[4] = test system: Diabrotica larvae; details: Jewett and Bjostad (1996); cited from earlier work

Row | Compound | role in attraction of larvae to corn roots (conclusion) [1] | also measured
1 | CCCCCCCC/C=C\CCCCCCCC(=O)O [oleic acid] | not involved in attraction of western corn root worm larvae | 
2 | CN1COCN(Cc2cnc(Cl)s2)/C1=N\[N+](=O)[O-] [Thiamethoxam] |  | repellence to neonate larvae [2]: does not repel corn root worm neonate larvae; effect on control of larvae provided by attractant granules [3]: greatly improved
3 | CCCCCCCCCCCCCCCCCC(=O)O [stearic acid] | not involved in attraction of western corn root worm larvae | 
4 | CCCCC/C=C\C/C=C\CCCCCCCC(=O)O [linoleic acid] | not involved in attraction of western corn root worm larvae | 
5 | ClCCl [dichloromethane] |  | attractiveness to larvae [4]: attractive to Diabrotica larvae
6 | COc1ccc2[nH]c(=O)oc2c1 [MBOA, 6-methoxy-2-benzoxazolinone] | not involved in attraction of western corn root worm larvae | 
